# Legend:
# NCI-H322M = experiment: Cytotoxicity against human NCI-H322M cells assessed as growth inhibition after 48 hrs by sulforhodamine B assay; assay type: functional; settings: for CC50: read-out: LC50 (the source's name)
# CCRF-CEM = experiment: Cytotoxicity against human CCRF-CEM cells assessed as cell growth at 1 uM after 48 hrs by sulforhodamine B assay relative to control; assay type: functional; settings: read-out: Activity
# SK-MEL-2 = experiment: Cytotoxicity against human SK-MEL-2 cells assessed as growth inhibition after 48 hrs by sulforhodamine B assay; assay type: functional; settings: SK-MEL-2, 48 h
# MCF7 [1] = experiment: Cytotoxicity against human MCF7 cells assessed as cell growth at 10 uM after 48 hrs by sulforhodamine B assay relative to control; assay type: functional; settings: MCF7, 48 h, read-out: Activity
# MDA-MB-231 = experiment: Cytotoxicity against human MDA-MB-231 cells assessed as cell growth at 0.01 uM after 48 hrs by sulforhodamine B assay relative to control; assay type: functional; settings: MDA-MB-231, 48 h, read-out: Activity
# SK-OV-3 = experiment: Cytotoxicity against human SKOV3 cells assessed as growth inhibition after 48 hrs by sulforhodamine B assay; assay type: functional; settings: SK-OV-3, 48 h
# A549 = experiment: Cytotoxicity against human A549/ATCC cells assessed as cell growth at 100 uM after 48 hrs by sulforhodamine B assay relative to control; assay type: functional; settings: A549, 48 h, read-out: Activity
# HOP-62 = experiment: Cytotoxicity against human HOP62 cells assessed as cell growth at 0.01 uM after 48 hrs by sulforhodamine B assay relative to control; assay type: functional; settings: HOP-62, 48 h, read-out: Activity
# OVCAR-5 = experiment: Cytotoxicity against human OVCAR5 cells assessed as cell growth at 0.01 uM after 48 hrs by sulforhodamine B assay relative to control; assay type: functional; settings: OVCAR-5, 48 h, read-out: Activity
# SR = experiment: Cytotoxicity against human SR cells assessed as cell growth at 10 uM after 48 hrs by sulforhodamine B assay relative to control; assay type: functional; settings: read-out: Activity
# NCI-H23 = experiment: Cytotoxicity against human NCI-H23 cells assessed as cell growth at 10 uM after 48 hrs by sulforhodamine B assay relative to control; assay type: functional; settings: NCI-H23, 48 h, read-out: Activity
# MOLT-4 [2] = experiment: Cytotoxicity against human MOLT4 cells assessed as cell growth at 0.01 uM after 48 hrs by sulforhodamine B assay relative to control; assay type: functional; settings: MOLT-4, 48 h, read-out: Activity
# BT-549 = experiment: Cytotoxicity against human BT549 cells assessed as cell growth at 0.01 uM after 48 hrs by sulforhodamine B assay relative to control; assay type: functional; settings: BT-549, 48 h, read-out: Activity
# MCF7 [3] = experiment: Cytotoxicity against human MCF7 cells assessed as growth inhibition after 48 hrs by MTT assay; assay type: functional, cell-based; settings: MCF7, 48 h
# IGROV-1 = experiment: Cytotoxicity against human IGROV1 cells assessed as cell growth at 0.1 uM after 48 hrs by sulforhodamine B assay relative to control; assay type: functional; settings: IGROV-1, 48 h, read-out: Activity
# SF-268 [4] = experiment: Cytotoxicity against human SF268 cells assessed as cell growth at 0.01 uM after 48 hrs by sulforhodamine B assay relative to control; assay type: functional; settings: SF-268, 48 h, read-out: Activity
# SNB-19 = experiment: Cytotoxicity against human SNB19 cells assessed as cell growth at 1 uM after 48 hrs by sulforhodamine B assay relative to control; assay type: functional; settings: SNB-19, 48 h, read-out: Activity
# SF-268 [5] = experiment: Cytotoxicity against human SF268 cells assessed as cell growth at 10 uM after 48 hrs by sulforhodamine B assay relative to control; assay type: functional; settings: SF-268, 48 h, read-out: Activity
# OVCAR-4 = experiment: Cytotoxicity against human OVCAR4 cells assessed as cell growth at 0.01 uM after 48 hrs by sulforhodamine B assay relative to control; assay type: functional; settings: OVCAR-4, 48 h, read-out: Activity
# KM12 = experiment: Cytotoxicity against human KM12 cells assessed as cell growth at 0.01 uM after 48 hrs by sulforhodamine B assay relative to control; assay type: functional; settings: KM12, 48 h, read-out: Activity
# UACC-257 = experiment: Cytotoxicity against human UACC257 cells assessed as growth inhibition after 48 hrs by sulforhodamine B assay; assay type: functional; settings: UACC-257, 48 h
# SW-620 [6] = experiment: Cytotoxicity against human SW620 cells assessed as growth inhibition after 48 hrs by sulforhodamine B assay; assay type: functional; settings: SW-620, 48 h
# COLO 205 = experiment: Cytotoxicity against human COLO205 cells assessed as cell growth at 0.01 uM after 48 hrs by sulforhodamine B assay relative to control; assay type: functional; settings: COLO 205, 48 h, read-out: Activity
# NCI-H460 = experiment: Cytotoxicity against human NCI-H460 cells assessed as cell growth at 100 uM after 48 hrs by sulforhodamine B assay relative to control; assay type: functional; settings: NCI-H460, 48 h, read-out: Activity
# Malme-3M = experiment: Cytotoxicity against human MALME-3M cells assessed as cell growth at 10 uM after 48 hrs by sulforhodamine B assay relative to control; assay type: functional; settings: read-out: Activity
# SF-268 [7] = experiment: Cytotoxicity against human SF268 cells assessed as cell growth at 1 uM after 48 hrs by sulforhodamine B assay relative to control; assay type: functional; settings: SF-268, 48 h, read-out: Activity
# SK-MEL-28 = experiment: Cytotoxicity against human SK-MEL-28 cells assessed as cell growth at 1 uM after 48 hrs by sulforhodamine B assay relative to control; assay type: functional; settings: SK-MEL-28, 48 h, read-out: Activity
# MOLT-4 [8] = experiment: Cytotoxicity against human MOLT4 cells assessed as cell growth at 1 uM after 48 hrs by sulforhodamine B assay relative to control; assay type: functional; settings: MOLT-4, 48 h, read-out: Activity
# T47D = experiment: Cytotoxicity against human T47D cells assessed as cell growth at 10 uM after 48 hrs by sulforhodamine B assay relative to control; assay type: functional; settings: read-out: Activity
# A498 = experiment: Cytotoxicity against human A498 cells assessed as cell growth at 1 uM after 48 hrs by sulforhodamine B assay relative to control; assay type: functional; settings: A498, 48 h, read-out: Activity
# SW-620 [9] = experiment: Cytotoxicity against human SW620 cells assessed as cell growth at 0.1 uM after 48 hrs by sulforhodamine B assay relative to control; assay type: functional; settings: SW-620, 48 h, read-out: Activity
# HL-60(TB) = experiment: Cytotoxicity against human HL-60(TB) cells assessed as cell growth at 10 uM after 48 hrs by sulforhodamine B assay relative to control; assay type: functional; settings: HL-60, 48 h, read-out: Activity
# SW-620 [10] = experiment: Cytotoxicity against human SW620 cells assessed as cell growth at 10 uM after 48 hrs by sulforhodamine B assay relative to control; assay type: functional; settings: SW-620, 48 h, read-out: Activity
# NCI/ADR-RES [11] = experiment: Cytotoxicity against human NCI/ADR-RES cells assessed as cell growth at 10 uM after 48 hrs by sulforhodamine B assay relative to control; assay type: functional; settings: read-out: Activity
# NCI/ADR-RES [12] = experiment: Cytotoxicity against human NCI/ADR-RES cells assessed as cell growth at 100 uM after 48 hrs by sulforhodamine B assay relative to control; assay type: functional; settings: read-out: Activity
# HCC 2998 = experiment: Cytotoxicity against human HCC2998 cells assessed as growth inhibition after 48 hrs by sulforhodamine B assay; assay type: functional; settings: HCC 2998, 48 h
smiles,measurement,setting,value
COc1cc(-c2cc(/C=C/C(=O)c3ccc(F)c(F)c3)[nH]n2)cc(OC)c1OC,TGI,NCI-H322M,> 100 µM
same,CC50,NCI-H322M,> 100 µM
same,growth at 1 µM,CCRF-CEM,91%
same,LC50 (concentration killing 50% of cells),SK-MEL-2,41.1 µM
same,TGI,SK-MEL-2,5.89 µM
same,growth at 10 µM,MCF7 [1],2%
same,growth at 0.01 µM,MDA-MB-231,94%
same,LC50,SK-OV-3,> 100 µM
same,TGI,SK-OV-3,58.6 µM
same,growth at 100 µM,A549,-15%
same,growth at 0.01 µM,HOP-62,100%
same,growth at 0.01 µM,OVCAR-5,99%
same,growth at 10 µM,SR,11%
same,growth at 10 µM,NCI-H23,-7%
same,growth at 0.01 µM,MOLT-4 [2],108%
same,growth at 0.01 µM,BT-549,101%
same,IC50,MCF7 [3],2.5 µM
same,growth at 0.1 µM,IGROV-1,97%
same,growth at 0.01 µM,SF-268 [4],94%
same,growth at 1 µM,SNB-19,82%
same,growth at 10 µM,SF-268 [5],17%
same,growth at 0.01 µM,OVCAR-4,90%
same,growth at 0.01 µM,KM12,96%
same,LC50,UACC-257,> 100 µM
same,TGI,UACC-257,6.28 µM
same,"LC50 (lethal concentration, 50% net cell kill)",SW-620 [6],> 100 µM
same,TGI,SW-620 [6],> 100 µM
same,growth at 0.01 µM,COLO 205,101%
same,growth at 100 µM,NCI-H460,-54%
same,growth at 10 µM,Malme-3M,-3%
same,growth at 1 µM,SF-268 [7],83%
same,growth at 1 µM,SK-MEL-28,98%
same,growth at 1 µM,MOLT-4 [8],91%
same,growth at 10 µM,T47D,9%
same,growth at 1 µM,A498,81%
same,growth at 0.1 µM,SW-620 [9],97%
same,growth at 10 µM,HL-60(TB),-29%
same,growth at 10 µM,SW-620 [10],12%
same,growth at 10 µM,NCI/ADR-RES [11],11%
same,growth at 100 µM,NCI/ADR-RES [12],-5%
same,LC50,HCC 2998,> 100 µM
same,TGI,HCC 2998,34.1 µM
COc1cc(-c2cc(/C=C/C(=O)c3ccc4c(c3)OCO4)[nH]n2)cc(OC)c1OC,TGI,NCI-H322M,19.1 µM
same,CC50,NCI-H322M,> 100 µM
same,growth at 1 µM,CCRF-CEM,67%
same,LC50 (concentration killing 50% of cells),SK-MEL-2,81.3 µM
same,TGI,SK-MEL-2,28.9 µM
same,growth at 10 µM,MCF7 [1],-1%
same,growth at 0.01 µM,MDA-MB-231,101%
same,LC50,SK-OV-3,> 100 µM
same,TGI,SK-OV-3,26.1 µM
same,growth at 100 µM,A549,8%
same,growth at 0.01 µM,HOP-62,101%
same,growth at 0.01 µM,OVCAR-5,97%
same,growth at 10 µM,SR,6%
same,growth at 10 µM,NCI-H23,63%
same,growth at 0.01 µM,MOLT-4 [2],97%
same,growth at 0.01 µM,BT-549,94%
same,IC50,MCF7 [3],0.9 µM
same,growth at 0.1 µM,IGROV-1,97%
same,growth at 0.01 µM,SF-268 [4],91%
same,growth at 1 µM,SNB-19,84%
same,growth at 10 µM,SF-268 [5],5%
same,growth at 0.01 µM,OVCAR-4,91%
same,growth at 0.01 µM,KM12,96%
same,LC50,UACC-257,> 100 µM
same,TGI,UACC-257,40.3 µM
same,"LC50 (lethal concentration, 50% net cell kill)",SW-620 [6],> 100 µM
same,growth at 0.01 µM,COLO 205,105%
same,growth at 100 µM,NCI-H460,-34%
same,growth at 10 µM,Malme-3M,26%
same,growth at 1 µM,SF-268 [7],90%
same,growth at 1 µM,SK-MEL-28,92%
same,growth at 1 µM,MOLT-4 [8],99%
same,growth at 10 µM,T47D,6%
same,growth at 1 µM,A498,83%
same,growth at 0.1 µM,SW-620 [9],96%
same,growth at 10 µM,HL-60(TB),-21%
same,growth at 10 µM,SW-620 [10],-9%
same,growth at 10 µM,NCI/ADR-RES [11],23%
same,growth at 100 µM,NCI/ADR-RES [12],1%
same,LC50,HCC 2998,6.43 µM
same,TGI,HCC 2998,3.54 µM
